Read-outs that look alike come from different tables or passages of the source.
Columns and labels:
HPV-11 = assay: Low risk HPV origin plasmid replication assay (qPCR) in HEK 293 cells; type: cell-based, human papillomavirus
Description: (§1) An origin-containing low risk or high risk HPV plasmid was co-transfected with homologous E1 and E2 protein expression vectors into HEK 293 cells. At 4 h post-transfection, cells were treated with test compound dilutions and then incubated for 48 h. HPV origin plasmid replication was detected after digestion with DpnI and exonuclease III to remove unreplicated transfected plasmids. Remaining replicated DNA was quantified by quantitative real time PCR (qPCR). In a parallel experiment in uninfected cells cytotoxicity was determined by trypan blue exclusion or CELLTITER-GLO® to find the concentration that reduced viable cell number by 50% (CC50). CC50 values were determined by trypan blue exclusion or CELLTITER-GLO® and the selectivity index calculated (Selectivity index=CC50/EC50). The low risk HPV tested was HPV-11, and the high-risk HPV tested was HPV-16 and HPV-18.

HPV-16 and HPV-18 = assay: High risk HPV origin plasmid replication assay (qPCR) in HEK 293 cells; type: cell-based, human papillomavirus; details: read-out: High Risk (EC50)
Description: as §1

HEK-293 cells = assay: Cytotoxicity assay in HEK-293 cells (trypan blue exclusion or CellTiter-Glo); type: cell-based
Description: as §1
Cytotoxicity Assays in HEK-293 cells. Cytotoxicity assays are performed in concurrently with every antiviral assay using the same cell line and media to ensure the same compound exposure. For the antiviral studies against HPV11 in HEK-293 cells, transfected cells are seeded in duplicate plates. […] At 48 h following compound addition, CELLTITER-GLO® (Promega) is added to each well and luminescence is determined on a luminometer. […]

[1] = system: human foreskin fibroblast (HFF) cells; assay: Cytotoxicity assay in primary human foreskin fibroblast cells (CellTiter-Glo); type: cell-based; details: 7d incubation
Description: Cytotoxicity Assays in Primary Human Foreskin Fibroblast Cells. Cytotoxicity was also evaluated in human foreskin fibroblast (HFF) cells as they are a highly sensitive indicator of toxicity in a standard assay with 7 d of compound exposure. A total of 4000 cells/well are seeded in 384-well plates in cell culture media containing 2% fetal bovine serum and antibiotics. Following a 24 h incubation, 5-fold compound dilutions are performed in duplicate wells directly in the plates containing monolayers of HFF cells. At 7 d following compound addition, CellTiter-Glo reagent is added to each well and resulting luminescence is measured on a luminometer to assess the number of viable cells in each well. Data are then used to calculate CC50 values.

[2] = low risk HPV tested was HPV-11, HEK 293 cells, 48 h incubation, read-out: Low Risk (EC50)

CCCCCCCCCCCCCCCCCCOCC(COP(=O)(O)COCCn1cnc2c(=O)[nH]c(N)nc21)OCc1ccccc1 (stereo not shown) [ODBG-PMEG, 1-O-Octadecyl-2-O-benzyl-sn-glyceryl PMEG]
EC50 (HPV-11; Human papillomavirus, HEK293, low risk HPV tested was HPV-11, HEK 293 cells, 48 h incubation, read-out: Low Risk (EC50)): 0.3 to 3 µM | EC50 (HPV-16 and HPV-18; Human papillomavirus, HEK293, 48 h): 0.3 to 3 µM

CCOC(=O)[C@H](C)NP(=O)(COCCn1cnc2c(=O)[nH]c(N)nc21)Oc1ccccc1 (stereo partly shown) [PMEG phenoxy amidate Example 10]
EC50 (HPV-11; Human papillomavirus, HEK293): 7.56 ± 0.63 µM | EC90 (HPV-11; Human papillomavirus, HEK293): > 100 µM | CC50 (HEK-293 cells; CellTiter-Glo, 2d incubation, read-out: Cytotoxicity CC50, HEK 293 (2d incubation)): > 100 µM | CC50 (HEK-293 cells; Table B, HEK-293 cells, parallel to HPV-11 antiviral assay, read-out: CC50): > 100 µM | CC50 [1]: 70.9 ± 4.07 µM

Nc1nc2c(ncn2CCOCP(=O)(O)O)c(=O)[nH]1 [PMEG, 9-(2-phosphonylmethoxyethyl) guanine, reference compound]
EC50 (HPV-11; [2]): 3 to 30 µM

CCCCCCCCCCCCCCCCCCOCCOP(=O)(O)COCCn1cnc2c(=O)[nH]c(N)nc21 [ODE-PMEG, Octadecyloxyethyl-Phosphonomethoxyethylguanine]
EC50 (HPV-11; [2]): < 0.3 µM | EC50 (HPV-16 and HPV-18; high-risk HPV tested was HPV-16 and HPV-18, HEK 293 cells, 48 h incubation): < 0.3 µM

Source: patent US12521397B2, “Nucleotide analogs” (The Regents of the University of California, priority 2014, dated 2026)
